Patent US8592421B2, “Cyclic bioisosters of purine system derivatives and a pharmaceutical composition based thereon” (priority 2003, dated 2013)

Columns and labels:
plasma hemostasis = assay: Autocoagulation test (coagulating activity A) after intravenous administration; format: in vivo, rabbit; details: for effect on the coagulation activity according to the autocoagulation test: doses 15.0, 30.0, 60.0 mg/kg
Protocol: The investigations were performed on 72 rabbits of the “Chinchilla” breed with a mass of 2.5±0.3 kg, who were administered which solutions of compounds 2, 15, 21, 37 in doses of 15, 30 and 60 mg/kg intravenously. The experiments included the thrombin-test (series No. 7300) and the coagulability-test (series No. 5000) purchased from the scientific-and-production association (SPA) “Renam”, thromboplastin (series No. 240600) and calcium chloride purchased from the SPA “MedioLab”
The static parameters of the blood and plasma coagulation (partial activated thromboplastin time, thrombin time, maximum coagulation activity (test for auto coagulation) were determined using the Behnk Electronic coagulometer (Germany). The operating principle of this instrument is based on the fact that the formed blood clot breaks the contacts of the pulse counter in the flask-pin circuit, said pin permanently oscillating in a vertical plane. The moment of formation of the clot is registered by stopping the stop watch hand.
The measurements were effected at a constant temperature of 37° C. maintained by a temperature control unit.
Compounds 2, 15, 21, 37 according to the invention at a concentration of 15, 30 and 60 mg/kg were intravenously administered to the above experimental animals and their blood samples were taken off 15, 30, 60 and 120 minutes after the administration.
Added to 0.2 ml of plasma obtained by centrifuging citrate blood at 1500 rev/min within 10 minutes was a glycosylate-calcium mixture (2.0 ml 0.222% CaCl2+0.1 ml of investigated citrate blood) 4, 6, 8, 10 minutes after the preparation of this mixture and the time of coagulation in the sample was determined.
The obtained results in seconds were translated in factors of coagulating activity A in percent, which specify the state of both the coagulating and anticoagulating parts of the blood coagulating system. The results of the experiments are given in Table 7. • The effect of the compounds according to the invention on the values of coagulating activity A by the data of autocoagulation test with intravenous administration of the compounds to the rabbits

[1] = system: embryonic fibroblasts of mouse NIH-3T3; assay: Effect on endocellular pHi of fibroblasts (microspectrofluorimetry with FDA / BCECF-AM); format: cell-based; details: for rise of pHi: fibroblasts in an attached spread state; for change of pHi: medium DME without blood serum, 20 minutes; for increase of pHi of cytosol: medium with 10.0% blood serum, 20 minutes after addition
Protocol: The effect of the compounds according to the invention on the endocellular pH, embryonic fibroblasts of mouse NIH-3T3 supplied by the All-Russian Collection of Cellular Cultures of the Institute of Cytology of the Russian Academy of Sciences St. Petersburg was investigated. The cells were grown in the DMEM (Sigma) medium containing 2.2 g/l of sodium bicarbonate with addition of 80.0 mkg/ml of gentamicin and 10.0% embryonal veal serum at a temperature of 37° C. in an atmosphere containing 5.0% of carbon dioxide. For these experiments use was also made of a medium buffer with 5.0 mM of HEPES and 15.0 mM of sodium bicarbonate without serum or with addition of 5.0% serum. The cells were calculated with the help of a hemocytometer. A share of the dead cells was determined by colouring trypan blue.
The measurements of the endocellular pHi were carried out with the help of colorants FDA (Sigma) and BCECF-AM (Calbiochem) on a microspectrofluorimeter by a standard technique (Koshevoy Yu. V., Akatov V. S., Grobova M. E. Microspectrofluorimeter for measuring endocellular pH (micro pH)”. Devices and equipment for studies in the field of physical-and-chemical biology and biotechnology. Pushchino, 1990. P. 8-14).
The cells at a temperature of 37° C. were colored within 5 minutes with 5.0 mkM PDA that before the colouring was prepared from a 10.0 mM solution in acetone by dilution for 30 minutes in a phosphatic buffer to 0.1 mM or 2.0 mkM 1.0 mM solution BCECF-AM in DMSO.
The two-wave method of determining pHi was used based on the ratio intensities of fluorescence of the cells on two wavelengths (Akatov V. S. et all), “Endocellular pH and substrate dependence of proliferation of fibroblasts of Chinese hamster, Cytology, 1991, 33 (7), p. 86-94). The fluorescence was excited by light at λ=490 nm, the emission was recorded simultaneously with two photomultipliers on wavelengths λ=535 nm and λ=570 nm. The K-ratio of the fluorescence on two wavelengths was determined with a deduction of the background fluorescence of the medium near the investigated cells for 40-60 individual cells, which are then averaged taking into account the measurement error. A thermostatically controlled table was used that allowed measurements to be conducted at a temperature of 37° C. An account was taken for the photodynamic damage of the pigmented cells during long-time continuous illumination by excited light. The readings were taken from a section of the preparation exposed to light for not more than 5 minutes.
The calibration curves for determining the absolute pHi values by magnitude K were constructed using the Thomas technique (Thomas J. A., Bushbaum R. N., Zimniak A. w Racker E. “Intracellular pH measurements in Ehrlich ascites tumor cells utilizing spectroscopic probe generated in situ”, Biochemistry, 1979, v. 18, p. 2210-2218), for which case the pigmented cells treated for 5-10 minutes with carboxyacidic nigericyn (Calbiochem) at a concentration of 5-10 mkg/ml was placed in a solution with a high content of potassium—130 mM KCl, 1.0 mM MgCl2, 20.0 mM of HEPES) and with pH values from 6.2 to 7.6. The K values were measured in the media with different pH assuming that pHi of the cells equals to the pH of the medium due to the action of nigericyn, which exchanges potassium ions for protons and at a high content of potassium in the medium counterbalances the pH of the medium and cells. Calibration curves were used based on the fluorescence of same medium with addition of 5.0 mkM of fluorescence or BCECF were used to the control the stability of the of the instrument readings.
The cells were colored by pigment BCECF-AM and pHi was measured 10 minutes after incubation in the medium with an appropriate pH value. […]

[2] = 15.0 mg/kg intravenously, after 15 minutes, control 85.6
[3] = 15.0 mg/kg intravenously, after 30 minutes, control 85.6
[4] = 15.0 mg/kg intravenously, after 60 minutes, control 85.6
[5] = 15.0 mg/kg intravenously, after 120 minutes, control 85.6
[6] = 30.0 mg/kg intravenously, after 15 minutes, control 70.0
[7] = 30.0 mg/kg intravenously, after 30 minutes, control 70.0
[8] = 30.0 mg/kg intravenously, after 60 minutes, control 70.0
[9] = 30.0 mg/kg intravenously, after 120 minutes, control 70.0
[10] = 60.0 mg/kg intravenously, after 15 minutes, control 65.9
[11] = 60.0 mg/kg intravenously, after 30 minutes, control 65.9
[12] = 60.0 mg/kg intravenously, after 60 minutes, control 65.9
[13] = 60.0 mg/kg intravenously, after 120 minutes, control 65.9

Row | Structure (SMILES) | coagulating activity A (autocoagulation test) (plasma hemostasis; [2]) | coagulating activity A (autocoagulation test) (plasma hemostasis; [3]) | coagulating activity A (autocoagulation test) (plasma hemostasis; [4]) | coagulating activity A (autocoagulation test) (plasma hemostasis; [5]) | coagulating activity A (autocoagulation test) (plasma hemostasis; [6]) | coagulating activity A (autocoagulation test) (plasma hemostasis; [7]) | coagulating activity A (autocoagulation test) (plasma hemostasis; [8]) | coagulating activity A (autocoagulation test) (plasma hemostasis; [9]) | coagulating activity A (autocoagulation test) (plasma hemostasis; [10]) | coagulating activity A (autocoagulation test) (plasma hemostasis; [11]) | coagulating activity A (autocoagulation test) (plasma hemostasis; [12]) | coagulating activity A (autocoagulation test) (plasma hemostasis; [13]) | effect on the coagulation activity according to the autocoagulation test (plasma hemostasis) | rise of pHi ([1]; 2.0 mkg/ml, on the average) | rise of pHi ([1]; 20.0 mkg/ml, on the average) | change of pHi ([1]; 0.02 mkg/ml) | change of pHi ([1]; 0.2 mkg/ml) | change of pHi ([1]; 2.0 mkg/ml, on the average) | change of pHi ([1]; 20.0 mkg/ml, on the average) | change of pHi ([1]; 200 mkg/ml) | further results
1 | Nc1ccnc2c(=O)n([C@@H]3O[C@H](CO)[C@@H](O)[C@H]3O)[nH]c(=O)c12 [Compound 2, 4-amino-7-(β-D-ribofuranosile)pyrido[2,3-d]-6H-pyridazine-5,8-dione] | 80.2% | 100.0% | 87.4% | 98.0% | 98.4% | 71.2% | 104.2% | 70.9% | 72.3% | 60.8% | 62.5% | 65.7% | have no effect on the coagulation activity | – | – | – | – | – | – | – | –
2 | Nc1cccc2c(=O)[nH][nH]c(=O)c12.[Na] [Compound 15, sodium salt of 5-amino-benzo[d]-3H-pyridazine-1,4-dione] | 82.3% | 103.0% | 89.0% | 101.2% | 100.3% | 68.4% | 106.6% | 70.6% | 74.4% | 63.2% | 64.4% | 66.5% | have no effect on the coagulation activity | 0.10 unit pHi | 0.07 unit pHi | no effect was found | no effect was found | 0.08 unit pHi | 0.08 unit pHi | no effect was found | change of pHi ([1]; 1000 mkg/ml): no effect was found; increase of pHi of cytosol ([1]; 0.02 mkg/ml): do not initiate a change of pH; increase of pHi of cytosol ([1]; 0.2 mkg/ml, on the average): 0.1 unit pH; increase of pHi of cytosol ([1]; 2.0 mkg/ml, on the average): 0.12 unit pH; increase of pHi of cytosol ([1]; 20.0 mkg/ml): do not initiate a change of pH
3 | Nc1cnc2c(=O)n([C@@H]3O[C@H](CO)[C@@H](O)[C@H]3O)[nH]c(=O)c2n1.[Na] [Compound 21, sodium salt of 3-amino-7-(β-D-ribofuranosile)pyrazine[2,3-d]-6H-pyridazine-5,8-dione] | 81.4% | 101.3% | 86.5% | 97.4% | 97.2% | 69.1% | 103.7% | 71.0% | 71.9% | 62.1% | 63.7% | 66.2% | have no effect on the coagulation activity | – | – | – | – | – | – | – | –
4 | O=c1[nH]n([C@@H]2O[C@H](CO)[C@@H](O)[C@H]2O)c(=O)c2nc(O)cnc12.[Na].[Na] [Compound 23, disodium salt of 2-hydroxy-7-(β-D-ribofuranosile)pyrazine[2,3—Cl]-6H-pyridazine-5,8-dione] | – | – | – | – | – | – | – | – | – | – | – | – | – | 0.10 unit pHi | 0.07 unit pHi | no effect was found | no effect was found | 0.08 unit pHi | 0.08 unit pHi | no effect was found | change of pHi ([1]; 1000 mkg/ml): no effect was found; increase of pHi of cytosol ([1]; 0.02 mkg/ml): do not initiate a change of pH; increase of pHi of cytosol ([1]; 0.2 mkg/ml, on the average): 0.1 unit pH; increase of pHi of cytosol ([1]; 2.0 mkg/ml, on the average): 0.12 unit pH; increase of pHi of cytosol ([1]; 20.0 mkg/ml): do not initiate a change of pH
5 | Nc1ncc2c(=O)[nH][nH]c(=O)c2n1 [Compound 36, 2-amino-pyrimido[4,5-d]-6H-pyridazine-5,8-dione] | – | – | – | – | – | – | – | – | – | – | – | – | – | 0.10 unit pHi | 0.07 unit pHi | no effect was found | no effect was found | 0.08 unit pHi | 0.08 unit pHi | no effect was found | change of pHi ([1]; 1000 mkg/ml): no effect was found; increase of pHi of cytosol ([1]; 0.02 mkg/ml): do not initiate a change of pH; increase of pHi of cytosol ([1]; 0.2 mkg/ml, on the average): 0.1 unit pH; increase of pHi of cytosol ([1]; 2.0 mkg/ml, on the average): 0.12 unit pH; increase of pHi of cytosol ([1]; 20.0 mkg/ml): do not initiate a change of pH
6 | O=c1[nH][nH]c(=O)c2c(Br)ncnc12.[K] [Compound 37, potassium salt of 4-bromine-pyrimido[4,5-D]-6H-pyridazine-5,8-dione] | 82.1% | 102.8% | 88.7% | 100.6% | 99.8% | 68.3% | 105.8% | 70.4% | 74.3% | 63.0% | 64.2% | 66.3% | have no effect on the coagulation activity | – | – | – | – | – | – | – | –
